The NIST ThermoML archive (doi:10.1021/acs.jced.5b00934)

Conditions: Liquid, Vibrating tube method

CCC(C)O (centres undefined) [butan-2-ol]
Conditions	mass density [kg/m3]
333.15 K, 38040 kPa	802.1
333.15 K, 39970 kPa	803.4
333.15 K, 45112 kPa	806.9
333.15 K, 47953 kPa	808.7
333.15 K, 50048 kPa	810.1
333.15 K, 52052 kPa	811.3
333.15 K, 55007 kPa	813.2
333.15 K, 62024 kPa	817.4
333.15 K, 64970 kPa	819.1
333.15 K, 66117 kPa	819.8
333.16 K, 20151 kPa	788.8
333.16 K, 42099 kPa	804.9
333.16 K, 58002 kPa	815
333.16 K, 60019 kPa	816.2
338.15 K, 99 kPa	765.5
338.15 K, 292 kPa	765.7
338.15 K, 539 kPa	766
338.15 K, 892 kPa	766.4
338.15 K, 1007 kPa	766.5
338.15 K, 3160 kPa	768.7
338.15 K, 4911 kPa	770.5
338.15 K, 10039 kPa	775.5
338.15 K, 12002 kPa	777.3
338.15 K, 15149 kPa	780.1
338.15 K, 18051 kPa	782.6
338.15 K, 19986 kPa	784.2
338.15 K, 21999 kPa	785.9
338.15 K, 32975 kPa	794.4
338.15 K, 35130 kPa	796
338.15 K, 40077 kPa	799.5
338.15 K, 44943 kPa	802.8
338.15 K, 48022 kPa	804.9
338.15 K, 52052 kPa	807.5
338.15 K, 55069 kPa	809.5
338.15 K, 58033 kPa	811.3
338.15 K, 60108 kPa	812.6
338.15 K, 62047 kPa	813.7
338.15 K, 65005 kPa	815.5
338.15 K, 66128 kPa	816.2
338.16 K, 2082 kPa	767.6
338.16 K, 6964 kPa	772.5
338.16 K, 8976 kPa	774.5
338.16 K, 24990 kPa	788.3
338.16 K, 27960 kPa	790.7
338.16 K, 30065 kPa	792.3
338.16 K, 31895 kPa	793.7
338.16 K, 32982 kPa	794.5
338.16 K, 33953 kPa	795.1
338.16 K, 37933 kPa	798
338.16 K, 41987 kPa	800.8
338.16 K, 50029 kPa	806.2
343.15 K, 90 kPa	760.2
343.15 K, 290 kPa	760.5
343.15 K, 469 kPa	760.6
343.15 K, 910 kPa	761.1
343.15 K, 1032 kPa	761.3
343.15 K, 1994 kPa	762.3
343.15 K, 4978 kPa	765.5
343.15 K, 7040 kPa	767.6
343.15 K, 9056 kPa	769.6
343.15 K, 10137 kPa	770.7
343.15 K, 12089 kPa	772.5
343.15 K, 14318 kPa	774.6
343.15 K, 15186 kPa	775.4
343.15 K, 17997 kPa	777.9
343.15 K, 19975 kPa	779.7
343.15 K, 22054 kPa	781.5
343.15 K, 25145 kPa	784.1
343.15 K, 27969 kPa	786.3
343.15 K, 30130 kPa	788.1
343.15 K, 31848 kPa	789.4
343.15 K, 32904 kPa	790.1
343.15 K, 33014 kPa	790.3
343.15 K, 33950 kPa	790.9
343.15 K, 35008 kPa	791.7
343.15 K, 38168 kPa	794.1
343.15 K, 39957 kPa	795.4
343.15 K, 42001 kPa	796.8
343.15 K, 44975 kPa	798.9
